What all share (format): functional
Assay [1] deals with Bacillus subtilis. Description: Antibacterial activity against Bacillus subtilis assessed as growth inhibition after 24 hr by two fold serial dilution method.
Assay [2] deals with Staphylococcus aureus. Description: Antibacterial activity against Staphylococcus aureus assessed as growth inhibition after 24 hr by two fold serial dilution method.
The subject of assay [3] is Salmonella typhi. Description: Antibacterial activity against Salmonella enterica subsp. enterica serovar Typhi assessed as growth inhibition after 24 hr by two fold serial dilution method.
Assay [4] concerns Klebsiella pneumoniae. The assay can be described thus: Antibacterial activity against Klebsiella pneumoniae assessed as growth inhibition after 24 hr by two-fold serial dilution method.
In assay [5] the test system is Pseudomonas aeruginosa. Description: Antibacterial activity against Pseudomonas aeruginosa assessed as growth inhibition after 24 hr by two-fold serial dilution method.
The subject of assay [6] is Shigella dysenteriae. Description: Antibacterial activity against Shigella dysenteriae assessed as growth inhibition after 24 hr by two-fold serial dilution method.
Assay [7] concerns Escherichia coli. Description: Antibacterial activity against Escherichia coli assessed as growth inhibition after 24 hr by two-fold serial dilution method.

Converted amounts (≈) assume the structure as drawn.

Turning to `O=C(/C=C/C=C/c1ccc2c(c1)OCO2)N1CCCCC1` [PIPERINE], the MIC – broadly, the lowest concentration that inhibits growth of the organism – was 500 µg/mL (≈ 1750 µM) in assay [1]; 300 µg/mL (≈ 1050 µM) in assay [2]; 200 µg/mL (≈ 701 µM) in assay [3]; 200 µg/mL (≈ 701 µM) in assay [4]; 100 µg/mL (≈ 350 µM) in assay [5]; 600 µg/mL (≈ 2100 µM) in assay [6]. Besides, in assay [7], the MIC worked out at 300 µg/mL (≈ 1050 µM).

For the molecule `O=C(/C=C/C=C/c1ccc2c(c1)OCO2)N[C@@H](Cc1c[nH]c2ccccc12)C(=O)O`, the MIC in assay [1] came out at 400 µg/mL (≈ 989 µM); in assay [2], 300 µg/mL (≈ 742 µM); in assay [3], 200 µg/mL (≈ 495 µM); in assay [4] it was 200 µg/mL (≈ 495 µM); in assay [5], 200 µg/mL (≈ 495 µM); in assay [6], 300 µg/mL (≈ 742 µM). In addition, in assay [7], the MIC was 400 µg/mL (≈ 989 µM).

With `O=C(/C=C/C=C/c1ccc2c(c1)OCO2)N[C@@H](Cc1cnc[nH]1)C(=O)O`, the MIC in assay [1] came to 300 µg/mL (≈ 844 µM); in assay [2], 300 µg/mL (≈ 844 µM); in assay [3], 300 µg/mL (≈ 844 µM); in assay [4], 300 µg/mL (≈ 844 µM); in assay [5] it was 300 µg/mL (≈ 844 µM); in assay [6] it was 200 µg/mL (≈ 563 µM). Besides, the MIC in assay [7] amounted to 200 µg/mL (≈ 563 µM).

In the case of `CC1(C)S[C@@H]2[C@H](NC(=O)[C@H](N)c3ccccc3)C(=O)N2[C@H]1C(=O)O` [AMPICILLIN], the MIC in assay [1] stood at 10 µg/mL (≈ 28.6 µM); in assay [2] it was 11 µg/mL (≈ 31.5 µM); in assay [3], 15 µg/mL (≈ 42.9 µM); in assay [4] it was 8 µg/mL (≈ 22.9 µM); in assay [5] it was 50 µg/mL (≈ 143 µM); in assay [6] it was 16 µg/mL (≈ 45.8 µM). The MIC in assay [7] was found to be 5 µg/mL (≈ 14.3 µM).

Take `O=C(/C=C/C=C/c1ccc2c(c1)OCO2)Nc1ccc(Br)cc1`: the minimal inhibitory concentration (MIC) in assay [1] came out at 500 µg/mL (≈ 1340 µM); in assay [2] it was 300 µg/mL (≈ 806 µM); in assay [3] it was 300 µg/mL (≈ 806 µM); in assay [4], 100 µg/mL (≈ 269 µM); in assay [5], 500 µg/mL (≈ 1340 µM); in assay [6], 300 µg/mL (≈ 806 µM). Also, the MIC in assay [7] amounted to 200 µg/mL (≈ 537 µM).

Regarding `O=C(/C=C/C=C/c1ccc2c(c1)OCO2)Nc1ccc(Cl)cc1`, the MIC was 500 µg/mL (≈ 1530 µM) in assay [1]; 200 µg/mL (≈ 610 µM) in assay [2]; 400 µg/mL (≈ 1220 µM) in assay [3]; 300 µg/mL (≈ 915 µM) in assay [4]; 200 µg/mL (≈ 610 µM) in assay [5]; 200 µg/mL (≈ 610 µM) in assay [6]. Besides, in assay [7], the MIC was found to be 100 µg/mL (≈ 305 µM).

In the case of `O=C(/C=C/C=C/c1ccc2c(c1)OCO2)N[C@@H](Cc1ccccc1)C(=O)O`, the MIC stood at 400 µg/mL (≈ 1090 µM) in assay [1]; 400 µg/mL (≈ 1090 µM) in assay [2]; 200 µg/mL (≈ 547 µM) in assay [3]; 300 µg/mL (≈ 821 µM) in assay [4]; 400 µg/mL (≈ 1090 µM) in assay [5]; 150 µg/mL (≈ 411 µM) in assay [6]. Besides, in assay [7], the MIC was 300 µg/mL (≈ 821 µM).

These data come from ChEMBL document CHEMBL3045305, “Synthesis, anticancer and antibacterial activities of piperine analogs” (Med Chem Res, 2013).
